The source of these data is patent US7465448B2, “Chemokine receptor antagonists as therapeutic agents” (Medical College of Georgia Research Institute, Inc., priority 2002, dated 2008).

One test concerns the target T1, CXCR4 (Homo sapiens, UniProt P61073).
T1 construct: expressed in transfected cells; host or cells: Saccharomyces cerevisiae, CXCR4 subcloned in the Cp4258 vector, coupled through a mammalian/yeast hybrid G subunit
As to the kind of experiment: Yeast (S. cerevisiae) pheromone-pathway signaling assay with expressed CXCR4. The test is classed as cell-based. As to conditions: yeast strains expressing CXCR4-WT; not in control cells lacking the receptor. An excerpt: For example, CCR6 can be functionally expressed in S. cerevisiae for the purpose of screening putative antagonists and for generating constitutively active mutants (CAMs). Similar studies have been performed by the inventors using related […] receptors CXCR4 and CCR5. Thus, chemokine receptors CXCR4 and CCR5 were expressed in a yeast strain in which these guanine nucleotide protein receptors (GPRs) were coupled to the mating pheromone response pathway by a mammalian/yeast hybrid G subunit. Consequently, stimulation of CXCR4 and CCR5 by the cognate ligands (SDF-1 and RANTES, respectively) activated signal transduction that results in histidine prototrophy or, in strains also carrying a pheromone-responsive FUS1-lacZ reporter gene, beta-galactosidase expression. In these experiments, SDF-1 stimulated histidine-independent growth and reporter gene expression in yeast strains expressing CXCR4-WT, but not in control cells lacking the receptor. […] All available CXCR4 antagonists blocked growth in histidine deficient medium resulting from CXCR4 activation and the induction of reporter gene expression stimulated by SDF-1.

For test [1], the system named is IDO. Briefly: MLR with sorted mouse tumor-draining lymph node cell fractions and BM3 T cell responders, with or without 1MT. It counts as cell-based. An excerpt: (§1) Lymph node (LN) cells were harvested from inguinal LNs draining established B78.GM tumors. Control cells were harvested from the contralateral inguinal nodes in the same mouse. LN cells were irradiated and used as stimulators in allo-MLRs, with the responder cells being TCR-transgenic CD8^+ T cells from BM3 mice, as BM3 T cells recognize H-2K^b as an alloantigen (Tarazona, R., et al., Int. Immunol., 8:351-358, (1996)), and thus are reactive with all MHC class I positive cells from C57BL/6 tumor-bearing hosts. These cells are known by those of skill in the art to be a recognized assay system for IDO-mediated suppression of the T cell response (Munn, D. H., et al., Science, 297:1867-1870, (2002); Lee et al., Immunol., 107:1-9, (2002)). […] To determine the etiology of T cell suppression by APCs, tumor draining lymph node cells were harvested from B78.GM tumors and sorted into a B220^+ CD11c^+ plasmacytoid dendritic cell (pDC) fraction and a CD25^+CD4^+ regulatory T-cell (Treg) fraction. A third “all other” fraction was also collected. Each fraction was used as stimulators in an MLR with BM3 responders. […] Pooled draining LN cells (4 nodes) were stained and fractionated by 4-color cell sorting for the two populations shown in the top schematic. All other cells were collected in a third fraction. Each fraction was then used as stimulators in MLRs (FIG. 13), using 50,000 BM3 T cells as responders. The number of stimulators used in each MLR was adjusted to be the same as would have been present in 50,000 cells of the original LN preparation, based on the measured percentage of each sorted fraction. Thus, in the experiment shown, 500 cells of the sorted B220^+ CD11c^+ fraction were added per well, and 1500 cells of the CD25^+ CD4^+ fraction, while 48,000 cells of the “all other” fraction were used.

For test [2], the target named is T2, IDO (Mus musculus, UniProt P28776).
T2 construct: from tissue; host or cells: tumor-draining inguinal lymph node cells (sorted fractions) of C57BL/6 mice bearing B78.GM tumors
T2 sequence (P28776 whole entry): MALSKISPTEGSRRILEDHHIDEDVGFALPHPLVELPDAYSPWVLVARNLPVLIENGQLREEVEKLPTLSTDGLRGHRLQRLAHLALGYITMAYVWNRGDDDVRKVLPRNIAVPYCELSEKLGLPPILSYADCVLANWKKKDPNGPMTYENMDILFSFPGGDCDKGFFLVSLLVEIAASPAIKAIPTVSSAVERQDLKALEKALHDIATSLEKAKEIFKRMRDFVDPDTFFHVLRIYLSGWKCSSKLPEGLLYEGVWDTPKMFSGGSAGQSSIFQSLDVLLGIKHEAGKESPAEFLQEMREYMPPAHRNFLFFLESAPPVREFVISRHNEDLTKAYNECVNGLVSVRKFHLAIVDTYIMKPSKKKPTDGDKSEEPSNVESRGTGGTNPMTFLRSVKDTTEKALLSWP
Described as above. It counts as cell-based. As to conditions: wild-type host, B78.GM tumor-draining LN.
From the text: as §1

Another test has as its target T3, CCR6 receptor (Homo sapiens, UniProt P51684).
T3 construct: a mixture of both CD123-positive (CCR6-positive) and CD123-negative (CCR6-negative) cells; endogenous in cells; host or cells: human monocyte-derived dendritic cells (mixed adherent and non-adherent fractions)
T3 sequence (P51684 1-374): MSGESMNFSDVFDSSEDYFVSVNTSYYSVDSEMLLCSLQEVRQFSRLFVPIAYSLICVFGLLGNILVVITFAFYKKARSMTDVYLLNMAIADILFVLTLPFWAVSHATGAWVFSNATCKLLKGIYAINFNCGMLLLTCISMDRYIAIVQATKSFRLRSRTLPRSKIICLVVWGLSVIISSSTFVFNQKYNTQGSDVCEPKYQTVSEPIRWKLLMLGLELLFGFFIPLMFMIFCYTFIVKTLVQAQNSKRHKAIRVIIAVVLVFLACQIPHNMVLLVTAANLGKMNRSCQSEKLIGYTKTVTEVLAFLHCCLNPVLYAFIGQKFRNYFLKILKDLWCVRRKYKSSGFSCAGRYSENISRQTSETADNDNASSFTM
As to the kind of experiment: Mip-3α gradient migration of mixed DCs with or without blocking anti-CCR6 antibody (Example 9). The test is classed as cell-based. An excerpt:
Monocyte-derived human dendritic cells (adherent and non-adherent fractions) were harvested and pooled, as described in Example 8, yielding a preparation comprising a mixture of both CD123-positive (CCR6-positive) and CD123-negative (CCR6-negative) cells. In Example 8, it was shown that a gradient of mip-3α caused selective migration of the CD123+ (CCR6+) population.
The mixed population of DCs was allowed to migrate across a porous membrane in response to a gradient of mip-3alpha, as described in Example 8. Different treatment groups received a commercial anti-CCR6 antibody (10 ug/ml), an isotype-matched control antibody at the same concentration, or no antibody. After 18 hrs, migrating cells (recovered in the lower chamber of the chemotaxis assay apparatus) were harvested, counted, and analyzed by flow cytometry for CD123 expression. CD123 was used as a marker to identify the IDO-expressing population, rather than CCR6, because the anti-CCR6 blocking antibody could artifactually interfere with immunofluorescent staining for CCR6. Since both markers are co-expressed on the IDO+ cells with a one-to-one correspondence, either marker gives equivalent information.

The test system of another test is CCR6^+/IDO^+ APCs. Briefly: Mip-3α-induced chemotaxis of dendritic cells, upper/lower chamber (Example 8). The test is classed as cell-based, human. As to conditions: 0.5×10^6 DCs/well, after 4 hours. On the procedure:
In this experiment, mip-3α-induced chemotaxis of CCR6^+/IDO^+ APCs was measured. Dendritic cells matured with a cytokine cocktail as described herein were used for a chemotaxis assay with mip-3α as the chemoattractant. Thus, monocytes were cultured in serum free medium (X-Vivo15) for five days in the presence of GMCSF (50 ng/mL) and IL-4 (50 ng/mL). After five days, cells were treated with a cytokine cocktail consisting of IL-1β (1870 U/mL), IL-6 (1000 U/mL), TNFα (1100 U/mL) and prostaglandin E2 (PGE2; 1.0 μg/mL), for two days. The cells were harvested and used for the chemotaxis assay. Control starting DCs were immunostained for CD123 and CCR6 (“Pre-Chemotaxis DCs”).
Mip-3α (0.5 μg/mL) was added to the different chambers and a defined number of DCs (0.5×10^6/well) were put on the upper chamber. After 4 hours, cells were counted in lower chamber of each group (Table 2). FACS immunostain was performed on all groups for CCR6 and CD123 (FIG. 7). […] Migration required a gradient of mip-3α from the upper chamber to the lower chamber, consistent with ligand induced chemotaxis.

“Also recorded” adds a separate entry of the source. Bounds are passed on as bounds.

T1 sequence (P61073 whole entry, species assumed): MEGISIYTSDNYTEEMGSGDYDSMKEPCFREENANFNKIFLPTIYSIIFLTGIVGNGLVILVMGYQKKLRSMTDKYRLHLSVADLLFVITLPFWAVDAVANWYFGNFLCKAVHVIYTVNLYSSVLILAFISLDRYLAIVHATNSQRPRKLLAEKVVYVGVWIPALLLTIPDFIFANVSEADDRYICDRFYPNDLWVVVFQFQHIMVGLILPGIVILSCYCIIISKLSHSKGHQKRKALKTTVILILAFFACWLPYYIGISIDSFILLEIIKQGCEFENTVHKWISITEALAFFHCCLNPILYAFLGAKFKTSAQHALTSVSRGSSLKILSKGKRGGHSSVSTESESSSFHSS

On to SDF-1: cognate ligand of CXCR4, for which the “Histidine-independent growth and reporter gene expression” value with CXCR4 was “stimulated”.

Turning to `Cn1cc(CC(N)C(=O)O)c2ccccc21` (centres unmarked) [1-MT, 1-methyl-(D,L)-tryptophan], the “Effect on MLR with LN fractions from IDO-knockout host” value in the test with IDO [1] (IDO-KO host, any group) was “no enhancing effect”. In addition, the “Suppression mediated by CD25+ CD4+ Tregs” value in the test with IDO [1] (wild-type host, B78.GM tumor-draining LN) was “not affected”. Moreover, on IDO [2], the “IDO-mediated suppression in mixing experiments (pDCs plus "all other" fraction)” value is recorded as “can be fully reversed; also recorded: again fully reversed” and the “Suppression by B220+ CD11c+ (pDC) fraction” value was “fully reversed”.

As for “Mip-3α: chemokine, ligand for the CCR6 chemokine receptor; chemotactic factor for immature dendritic cells”, the “Increase of migration of CD123+ cells” value in the test with CCR6 receptor (gradient of mip-3α, 18 hrs) is on record as more than 10 fold. Besides, the “Purity of CD123+ cells in migrated population” value in the test with CCR6 receptor (gradient of mip-3α, starting population 68% CD123+) came out at 96%. The “Mip-3α induced migration without gradient” value with CCR6 receptor (mip-3α present on both sides of the membrane) is listed as “substantially reduced”. For the same compound, the “Number of Cells in Lower Chamber” value worked out at 2.96 with CCR6^+/IDO^+ APCs (Mip-3α (0.5 μg/mL) in lower chamber only (gradient)); 0.98 with CCR6^+/IDO^+ APCs (Mip-3α (0.5 μg/mL) in upper and lower chamber); 0.73 in the test with CCR6^+/IDO^+ APCs (Mip-3α (0.5 μg/mL) in upper chamber only).
